Test results: the NIST ThermoML archive (doi:10.1021/je700035m)
± gives the expanded uncertainty stated by the source.

Assays:
[1] = molar enthalpy of vaporization or sublimation; details: 298.15 K, vacuum sublimation/vaporization calorimetry
[2] = Crystal; DTA
[3] = Molar enthalpy of transition or fusion; details: Crystal; DSC

molar enthalpy ([1]; Liquid) [kcal/mol]	Normal melting temperature [2] [°C]	Molar enthalpy of transition or fusion [3] [kcal/mol]	molar enthalpy ([1]; Crystal) [kcal/mol]	SMILES
13.1 ± 0.55	–	–	–	Cc1ccc2c(c1)OCO2 [5-methyl-1,3-benzodioxole]
–	147.01 ± 0.39	6.74 ± 0.287	23.3 ± 1.03	O=[N+]([O-])c1ccc2c(c1)OCO2 [1,2-(methylenedioxy)-4-nitrobenzene]
–	93.11 ± 0.39	4.97 ± 0.12	21.7 ± 0.43	N#Cc1ccc2c(c1)OCO2 [3,4-methylenedioxybenzonitrile]

SMILES	molar enthalpy ([1]; Liquid) [kcal/mol]	Normal melting temperature [2] [°C]	Molar enthalpy of transition or fusion [3] [kcal/mol]	molar enthalpy ([1]; Crystal) [kcal/mol]
CC(=O)c1ccc2c(c1)OCO2 [5-oxoethyl-1,3-benzodioxole]	–	85.72 ± 0.39	6.27 ± 0.141	25 ± 1.03
